Assay results: patent publication US8952042B2, “FXR (NR1H4) binding and activity modulating compounds” (Phenex Pharmaceuticals AG, priority 2009, dated 2015)

Assays:
[1] = according to Akwabi-Ameyaw et al.; cited from earlier work
[2] = UV photostability, irradiation at 254 nm, 1H NMR; type: physicochemical
Protocol: The compounds of interest were dissolved using ethanol and their UV spectrum was analyzed to determine their λmax to establish an irradiation wavelength to be used in the study (see FIG. 2). The best wavelength for testing the UV stability of the —CH═CH— double bond was determined to be 254 nm. Further material of the compounds was then dissolved in deuterated ethanol and the ^1H NMRs (400 MHz) analyzed (T=0). Each sample was then recovered from the NMR tube and subjected to UV irradiation (254 nm) for 4 h, 15 h and 70 h. At the respective timepoints the individual samples were re-analyzed by ^1H NMR and the signal for the —CH═CH— protons evaluated to assess the percent of remaining intact double bond. Other changes in the chemical shift signals were also analyzed for further changes on the overall structure of the molecules.

[3] = attributed to trans-stilbene moiety, Akwabi-Ameyaw et al.; cited from earlier work
[4] = Pharmacokinetics in rat after intravenous administration 1 mg/kg; type: in vivo, Male Sprague Dawley Rat; conditions: rat
Protocol: Compounds were applied perorally by gavage at 5 mg/kg each and by i.v. Injection at 1 mg/kg each to male 12 weeks old C57BI/6J or Sprague Dawley rats and plasma concentrations of the test items were determined by LC-MS/MS after time points as indicated. In the case of Cynomolgus monkeys ([…]), the dose was adjusted to 12 mg/kg p.o., no i.v. injection was given (FIG. 1a, 1b and Table 2).
A solution of 2.5 mg/mL of each test item was produced by diluting them in the vehicle, 0.5% Hydroxypropyl-Methylcellulose (w/v) in 20 mM phosphate buffered saline pH 7.4. The solutions were stirred overnight at room temperature and heated to 40° C. for 10 minutes, resulting in fully homogenous suspension. The application was performed by administrating the solution perorally to the mice, with an application volume of 5 mL/kg. For each time point three mice or rats were used. In case of the Cynomolgus monkeys blood samples were obtained by repeated vein puncture. Blood samples were treated with L1-heparin during collection procedure and stored on ice until centrifugation at 645 g (5 min, 4° C.). Plasma was harvested and kept at −20° C. until being assayed. To 50 μL of plasma sample […] acetonitrile containing an internal standard was added. Samples were vigorously shaken and centrifuged for 10 minutes at 6000 g and 20° C. An aliquot of the particle-free supernatant was transferred to 200 μL sampler vials and subsequently subjected to LC MS/MS for quantification.

[5] = tested on: C57BLKS lepr^−/− db/db mice; test: Lipid lowering effects in db/db mice; type: in vivo, mouse; conditions: 3 days of dosing at 2×5 mg/kg/day
Protocol: Compounds were applied perorally by gavage at 2×5 mg/kg each to C57BLKS lepr^−/− db/db mice starting at the age of 12 weeks. Animals have been set on a High-Fat Diet (ssniff EF R/M 12330 with 59% (kcal) fat from Ssniff, Soest, Germany) for two weeks prior to start of gavage. Baseline blood was taken by retroorbital bleeding. Blood samples were treated with L1-heparin during collection procedure and stored on ice until centrifugation at 645 g (5 min, 4° C.). Plasma was harvested and kept at −20° C. until being assayed. Total triglycerides and total cholesterol were measured in a 3 μL aliquot of plasma using commercial kits LabAssay™ Triglyceride (Code No 290-63701) and LabAssay™ Cholesterol (Code No 294-65801) from Wako Diagnostics (Neuss, Germany). […]

[6] = male, Sprague Dawley, plasma, iv, 1 mg/kg i.v.

behaviour in 1H NMR spectrum after prolonged UV irradiation ([2]; 70 h UV irradiation at 254 nm): major changes
compound still present in the mixture (1H NMR integration) ([2]; 70 h UV irradiation at 254 nm, deuterated ethanol): less than 30%
compound decayed ([2]; after 70 h UV irradiation at 254 nm): 70%
AUC(0-inf) [4, 6]: 294 ng·h/mL
MRT last [4, 6]: 50.4 min
Tmax [4, 6]: 4.98 min
Vd [4, 6]: 5.98 L/kg
half-life [4, 6]: 73.2 min
concentration at 0.083 hr ([4]; male, Sprague Dawley, plasma, iv, 1 mg/kg i.v., 0.083 hr): 405 ng/mL
concentration at 0.25 hr ([4]; male, Sprague Dawley, plasma, iv, 1 mg/kg i.v., 0.25 hr): 208 ng/mL
concentration at 0.5 hr ([4]; male, Sprague Dawley, plasma, iv, 1 mg/kg i.v., 0.50 hr): 124 ng/mL
concentration at 1 hr ([4]; male, Sprague Dawley, plasma, iv, 1 mg/kg i.v., 1.00 hr): 68.3 ng/mL
concentration at 2 hr ([4]; male, Sprague Dawley, plasma, iv, 1 mg/kg i.v., 2.00 hr): 25 ng/mL
concentration at 4 hr ([4]; male, Sprague Dawley, plasma, iv, 1 mg/kg i.v., 4.00 hr): 15 ng/mL
Cmax ([4]; male, Sprague Dawley, plasma, 1 mg/kg i.v., footnote: Co for Intravenous): 565 ng/mL
AUC(0-t) ([4]; male, Sprague Dawley, plasma, iv, 1 mg/kg, read-out: #AUC(0-8)): 268 ng·h/mL
AUC Extrapolated ([4]; 1 mg/kg i.v.): 9.0%
CI ([4]; 1 mg/kg i.v.): 56.7083 mL/min/kg
SMILES: CC(C)c1onc(-c2c(Cl)cccc2Cl)c1COc1ccc(/C=C/c2cccc(C(=O)O)c2)c(Cl)c1 [GW4064, reference compound]
oral bioavailability [1]: low
plasma exposure [1]: low
plasma half life [1]: short
ultraviolet light stability [3]: instability
change in fasting blood glucose against vehicle [5]: −6%
